Active and inactive are the calls of the source. The calls are words filed in the database; no cut-off is given here.
Tests used:
[1] = tested on: Receptor-type tyrosine-protein kinase FLT3 (Homo sapiens), P36888 [UNDEFINED MUTATION]; assay: Induction of FLT3-ITD degradation in human MV4-11 cells measured upto 18 hrs by Western blot analysis; assay type: cell-based; conditions: time hrs <=18
[2] = tested on: MOLM-13; assay: Antiproliferative activity against human MOLM-13 cells incubated for 48 hrs by CCK-8 assay; assay type: functional, cell-based; conditions: MOLM-13, 48 h
[3] = tested on: MV4-11; assay: Antiproliferative activity against human MV4-11 cells incubated for 48 hrs by CCK-8 assay; assay type: functional, cell-based; conditions: MV4-11, 48 h
[4] = molecular target: Mast/stem cell growth factor receptor Kit (Homo sapiens) (UniProt P10721); assay: Inhibition of KIT (unknown origin) at 1000 nM relative to control
[5] = molecular target: Mitogen-activated protein kinase kinase kinase kinase 1 (Homo sapiens) (UniProt Q92918); assay: Inhibition of HPK1 (unknown origin) at 1000 nM relative to control
[6] = molecular target: CDK7/Cyclin H/MNAT1 (Homo sapiens) (UniProt P51946+P50613+P51948); assay: Inhibition of CDK7/cyclinH/MAT1 (unknown origin) at 1000 nM relative to control; assay type: protein-complex assay
[7] = molecular target: Serine/threonine-protein kinase 4 (Homo sapiens) (UniProt Q13043); assay: Inhibition of MST1 (unknown origin) at 1000 nM relative to control
[8] = molecular target: Proto-oncogene tyrosine-protein kinase Src (Homo sapiens) (UniProt P12931); assay: Inhibition of SRC (unknown origin) at 1000 nM relative to control
[9] = molecular target: Maternal embryonic leucine zipper kinase (Homo sapiens) (UniProt Q14680); assay: Inhibition of MELK (unknown origin) at 1000 nM relative to control
[10] = molecular target: Serine/threonine-protein kinase TBK1 (Homo sapiens) (UniProt Q9UHD2); assay: Inhibition of TBK1 (unknown origin) at 1000 nM relative to control
[11] = molecular target: Serine/threonine-protein kinase MARK1 (Homo sapiens) (UniProt Q9P0L2); assay: Inhibition of MARK1 (unknown origin) at 1000 nM relative to control
[12] = molecular target: ALK tyrosine kinase receptor (Homo sapiens) (UniProt Q9UM73); assay: Inhibition of ALK (unknown origin) at 1000 nM relative to control
[13] = molecular target: Mitogen-activated protein kinase 1 (Homo sapiens) (UniProt P28482); assay: Inhibition of MAPK2 (unknown origin) at 1000 nM relative to control
[14] = molecular target: Tyrosine-protein kinase JAK3 (Homo sapiens) (UniProt P52333); assay: Inhibition of JAK3 (unknown origin) at 1000 nM relative to control
[15] = molecular target: Aurora kinase A (Homo sapiens) (UniProt O14965); assay: Inhibition of AURORA-A (unknown origin) at 1000 nM relative to control
[16] = molecular target: Discoidin domain-containing receptor 2 (Homo sapiens) (UniProt Q16832); assay: Inhibition of DDR2 (unknown origin) at 1000 nM relative to control
[17] = molecular target: Receptor tyrosine-protein kinase erbB-2 (Homo sapiens) (UniProt P04626); assay: Inhibition of HER2 (unknown origin) at 1000 nM relative to control
[18] = molecular target: Mitogen-activated protein kinase 8 (Homo sapiens) (UniProt P45983); assay: Inhibition of JNK1 (unknown origin) at 1000 nM relative to control
[19] = molecular target: Mitogen-activated protein kinase 1 (Homo sapiens) (UniProt P28482); assay: Inhibition of ERK2 (unknown origin) at 1000 nM relative to control
[20] = molecular target: Serine/threonine-protein kinase Chk2 (Homo sapiens) (UniProt O96017); assay: Inhibition of CHK2 (unknown origin) at 1000 nM relative to control
[21] = molecular target: Rho-associated protein kinase 1 (Homo sapiens) (UniProt Q13464); assay: Inhibition of ROCK1 (unknown origin) at 1000 nM relative to control
[22] = molecular target: Glycogen synthase kinase-3 alpha (Homo sapiens) (UniProt P49840); assay: Inhibition of GSK3alpha (unknown origin) at 1000 nM relative to control
[23] = molecular target: Mitogen-activated protein kinase kinase kinase 14 (Homo sapiens) (UniProt Q99558); assay: Inhibition of NIK (unknown origin) at 1000 nM relative to control
[24] = molecular target: Hepatocyte growth factor receptor (Homo sapiens) (UniProt P08581); assay: Inhibition of C-MET (unknown origin) at 1000 nM relative to control
[25] = molecular target: Casein kinase I isoform alpha-like (Homo sapiens) (UniProt Q8N752); assay: Inhibition of CK1A1 (unknown origin) at 1000 nM relative to control
[26] = molecular target: RAC-alpha serine/threonine-protein kinase (Homo sapiens) (UniProt P31749); assay: Inhibition of AKT1 (unknown origin) at 1000 nM relative to control
[27] = tested on: MOLM-13; assay: Induction of apoptosis in human MOLM-13 cells at 10 nM after 48 hrs by Annexin-V/PI staining based flow cytometry; assay type: functional, cell-based
[28] = tested on: MV4-11; assay: Induction of apoptosis in human MV4-11 cells at 10 nM after 48 hrs by Annexin-V/PI staining based flow cytometry; assay type: functional, cell-based

Chain of Mitogen-activated protein kinase 1 (Homo sapiens) (P28482 whole entry): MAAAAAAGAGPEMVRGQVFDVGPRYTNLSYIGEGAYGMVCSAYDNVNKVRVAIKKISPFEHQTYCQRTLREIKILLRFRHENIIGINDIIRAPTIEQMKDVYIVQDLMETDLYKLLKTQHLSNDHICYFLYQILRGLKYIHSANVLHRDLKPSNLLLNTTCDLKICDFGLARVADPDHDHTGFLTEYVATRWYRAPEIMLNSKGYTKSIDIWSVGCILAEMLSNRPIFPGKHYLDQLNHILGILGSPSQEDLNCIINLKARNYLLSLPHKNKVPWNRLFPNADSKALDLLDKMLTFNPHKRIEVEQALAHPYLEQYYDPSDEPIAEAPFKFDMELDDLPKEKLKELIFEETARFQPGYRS
Chain of Serine/threonine-protein kinase Chk2 (Homo sapiens) (O96017 whole entry): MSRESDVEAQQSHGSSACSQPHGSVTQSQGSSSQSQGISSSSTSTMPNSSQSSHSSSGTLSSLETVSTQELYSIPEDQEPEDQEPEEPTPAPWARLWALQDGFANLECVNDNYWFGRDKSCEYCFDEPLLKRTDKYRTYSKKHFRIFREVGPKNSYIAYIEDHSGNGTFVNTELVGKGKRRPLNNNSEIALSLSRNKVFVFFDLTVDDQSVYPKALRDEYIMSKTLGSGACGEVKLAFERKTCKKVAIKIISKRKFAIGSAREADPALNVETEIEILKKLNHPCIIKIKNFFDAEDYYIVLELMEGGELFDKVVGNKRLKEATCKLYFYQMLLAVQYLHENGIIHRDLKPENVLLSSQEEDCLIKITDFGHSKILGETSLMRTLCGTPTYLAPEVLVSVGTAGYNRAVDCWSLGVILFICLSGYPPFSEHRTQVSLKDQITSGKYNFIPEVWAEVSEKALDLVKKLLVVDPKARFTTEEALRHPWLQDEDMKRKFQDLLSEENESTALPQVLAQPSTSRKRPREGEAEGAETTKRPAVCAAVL
Chain of Serine/threonine-protein kinase TBK1 (Homo sapiens) (Q9UHD2 whole entry): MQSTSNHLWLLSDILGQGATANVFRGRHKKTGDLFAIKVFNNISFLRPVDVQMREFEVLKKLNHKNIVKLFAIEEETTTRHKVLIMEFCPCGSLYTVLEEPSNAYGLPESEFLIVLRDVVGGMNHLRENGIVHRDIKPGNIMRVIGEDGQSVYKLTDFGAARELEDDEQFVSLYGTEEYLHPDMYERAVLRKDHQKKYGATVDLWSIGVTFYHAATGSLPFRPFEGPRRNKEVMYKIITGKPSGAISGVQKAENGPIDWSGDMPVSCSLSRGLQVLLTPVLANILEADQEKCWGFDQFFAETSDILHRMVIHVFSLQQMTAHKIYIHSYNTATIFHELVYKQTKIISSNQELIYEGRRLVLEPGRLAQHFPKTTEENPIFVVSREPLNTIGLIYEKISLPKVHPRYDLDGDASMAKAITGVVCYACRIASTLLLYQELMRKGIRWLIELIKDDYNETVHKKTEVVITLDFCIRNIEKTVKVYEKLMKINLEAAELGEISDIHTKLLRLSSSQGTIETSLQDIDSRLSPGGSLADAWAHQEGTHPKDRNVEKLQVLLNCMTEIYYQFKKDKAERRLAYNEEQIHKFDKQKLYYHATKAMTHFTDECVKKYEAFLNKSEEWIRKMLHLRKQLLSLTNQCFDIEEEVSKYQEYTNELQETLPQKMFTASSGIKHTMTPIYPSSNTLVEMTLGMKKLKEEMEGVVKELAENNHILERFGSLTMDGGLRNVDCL
Chain of Serine/threonine-protein kinase 4 (Homo sapiens) (Q13043 whole entry): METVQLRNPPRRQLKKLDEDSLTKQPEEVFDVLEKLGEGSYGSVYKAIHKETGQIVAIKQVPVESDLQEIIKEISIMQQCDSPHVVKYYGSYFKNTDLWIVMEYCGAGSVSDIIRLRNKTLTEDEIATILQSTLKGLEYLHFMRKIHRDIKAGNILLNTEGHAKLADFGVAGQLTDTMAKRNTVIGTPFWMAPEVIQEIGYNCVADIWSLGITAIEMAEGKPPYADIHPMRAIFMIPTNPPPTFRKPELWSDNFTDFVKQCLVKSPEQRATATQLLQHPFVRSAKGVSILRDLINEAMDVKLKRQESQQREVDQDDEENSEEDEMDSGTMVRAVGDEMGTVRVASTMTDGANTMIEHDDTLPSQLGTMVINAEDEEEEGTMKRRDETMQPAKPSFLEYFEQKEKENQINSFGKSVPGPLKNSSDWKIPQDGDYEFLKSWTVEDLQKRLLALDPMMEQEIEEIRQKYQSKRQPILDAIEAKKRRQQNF
Chain of Serine/threonine-protein kinase MARK1 (Homo sapiens) (Q9P0L2 whole entry, looked up): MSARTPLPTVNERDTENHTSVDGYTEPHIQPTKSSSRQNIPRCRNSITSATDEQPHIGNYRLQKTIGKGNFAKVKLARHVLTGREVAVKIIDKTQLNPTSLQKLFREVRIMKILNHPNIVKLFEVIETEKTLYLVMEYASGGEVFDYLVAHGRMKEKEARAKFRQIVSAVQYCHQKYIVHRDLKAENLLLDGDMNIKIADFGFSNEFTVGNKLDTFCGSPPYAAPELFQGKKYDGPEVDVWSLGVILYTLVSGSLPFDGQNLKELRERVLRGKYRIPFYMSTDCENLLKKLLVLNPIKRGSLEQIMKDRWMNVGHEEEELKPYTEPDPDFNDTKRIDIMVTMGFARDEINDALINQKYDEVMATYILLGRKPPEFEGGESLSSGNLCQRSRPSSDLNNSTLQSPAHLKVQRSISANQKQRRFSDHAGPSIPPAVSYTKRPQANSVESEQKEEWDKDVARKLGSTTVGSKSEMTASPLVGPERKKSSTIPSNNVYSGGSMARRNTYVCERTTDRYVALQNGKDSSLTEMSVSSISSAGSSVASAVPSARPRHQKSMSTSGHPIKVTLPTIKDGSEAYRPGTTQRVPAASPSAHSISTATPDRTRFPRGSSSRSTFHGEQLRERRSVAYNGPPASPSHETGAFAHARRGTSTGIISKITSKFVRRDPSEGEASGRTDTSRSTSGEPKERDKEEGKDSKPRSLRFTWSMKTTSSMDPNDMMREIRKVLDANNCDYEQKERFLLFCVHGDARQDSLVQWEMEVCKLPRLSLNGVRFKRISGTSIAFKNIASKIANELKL
Chain of RAC-alpha serine/threonine-protein kinase (Homo sapiens) (P31749 whole entry): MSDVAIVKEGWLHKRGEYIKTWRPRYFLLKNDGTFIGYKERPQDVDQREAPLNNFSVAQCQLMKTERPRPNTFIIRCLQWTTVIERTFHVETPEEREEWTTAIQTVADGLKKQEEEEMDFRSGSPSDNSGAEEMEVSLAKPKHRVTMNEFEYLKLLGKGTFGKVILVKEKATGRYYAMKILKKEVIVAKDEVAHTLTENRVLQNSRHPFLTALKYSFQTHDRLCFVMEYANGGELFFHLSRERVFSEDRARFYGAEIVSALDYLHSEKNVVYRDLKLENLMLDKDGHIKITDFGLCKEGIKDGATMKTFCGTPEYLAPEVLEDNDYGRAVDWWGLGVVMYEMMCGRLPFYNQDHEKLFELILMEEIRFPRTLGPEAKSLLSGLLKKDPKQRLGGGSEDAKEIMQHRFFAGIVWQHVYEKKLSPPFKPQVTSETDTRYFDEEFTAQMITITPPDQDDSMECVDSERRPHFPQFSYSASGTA
Chain of Glycogen synthase kinase-3 alpha (Homo sapiens) (P49840 2-483 limits assumed): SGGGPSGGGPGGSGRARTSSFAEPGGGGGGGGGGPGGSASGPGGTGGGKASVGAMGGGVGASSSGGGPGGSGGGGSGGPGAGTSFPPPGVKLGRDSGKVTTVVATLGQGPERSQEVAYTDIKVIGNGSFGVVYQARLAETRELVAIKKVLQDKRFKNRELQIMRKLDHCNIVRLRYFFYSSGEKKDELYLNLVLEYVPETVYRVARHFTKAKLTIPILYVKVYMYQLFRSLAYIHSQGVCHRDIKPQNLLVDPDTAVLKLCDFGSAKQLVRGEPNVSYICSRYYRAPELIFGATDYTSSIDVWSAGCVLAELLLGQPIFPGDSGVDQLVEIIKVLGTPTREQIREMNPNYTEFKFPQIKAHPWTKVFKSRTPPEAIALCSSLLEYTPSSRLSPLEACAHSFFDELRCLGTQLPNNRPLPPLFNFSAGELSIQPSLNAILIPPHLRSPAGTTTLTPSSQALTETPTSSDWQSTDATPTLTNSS
Chain of Receptor-type tyrosine-protein kinase FLT3 (Homo sapiens), P36888 [UNDEFINED MUTATION] (P36888 whole entry, looked up, stated change not applied): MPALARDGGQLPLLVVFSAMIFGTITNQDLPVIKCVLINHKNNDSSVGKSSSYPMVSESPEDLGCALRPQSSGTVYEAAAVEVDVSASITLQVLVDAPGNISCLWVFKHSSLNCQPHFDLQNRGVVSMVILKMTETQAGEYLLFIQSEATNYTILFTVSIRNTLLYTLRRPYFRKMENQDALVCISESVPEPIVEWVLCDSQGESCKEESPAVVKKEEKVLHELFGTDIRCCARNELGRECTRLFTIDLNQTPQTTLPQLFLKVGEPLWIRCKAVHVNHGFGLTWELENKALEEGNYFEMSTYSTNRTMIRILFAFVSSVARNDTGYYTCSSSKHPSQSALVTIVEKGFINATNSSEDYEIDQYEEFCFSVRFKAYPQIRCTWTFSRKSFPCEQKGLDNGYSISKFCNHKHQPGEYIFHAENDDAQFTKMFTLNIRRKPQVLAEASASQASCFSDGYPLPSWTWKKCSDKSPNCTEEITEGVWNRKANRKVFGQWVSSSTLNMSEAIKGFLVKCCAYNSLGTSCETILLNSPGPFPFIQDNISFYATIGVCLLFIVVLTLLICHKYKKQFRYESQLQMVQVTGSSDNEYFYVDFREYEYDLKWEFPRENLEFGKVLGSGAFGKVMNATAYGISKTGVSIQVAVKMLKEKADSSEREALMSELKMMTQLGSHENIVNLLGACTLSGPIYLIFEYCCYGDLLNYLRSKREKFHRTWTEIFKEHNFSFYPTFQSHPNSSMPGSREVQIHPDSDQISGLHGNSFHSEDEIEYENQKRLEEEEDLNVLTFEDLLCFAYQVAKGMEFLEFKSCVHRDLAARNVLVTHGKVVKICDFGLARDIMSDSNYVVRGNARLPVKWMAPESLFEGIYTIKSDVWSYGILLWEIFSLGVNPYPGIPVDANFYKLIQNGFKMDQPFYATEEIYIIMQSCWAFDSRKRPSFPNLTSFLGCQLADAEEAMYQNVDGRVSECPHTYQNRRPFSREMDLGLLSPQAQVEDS

C[C@@H]1C[C@@H]([C@H](O)CC2CC(=O)NC(=O)C2)C(=O)[C@@H](C)C1
Activity [1]: inactive

CN1CCN(c2ccc3nc(-c4c(N)c5c(F)cccc5[nH]c4=O)[nH]c3c2)CC1 [DOVITINIB]
IC50 [2]: 795 nM | IC50 [3]: 184 nM | inhibition [4]: 98% | inhibition [5]: 94% | inhibition [6]: 85% | inhibition [7]: 82% | inhibition [8]: 79% | inhibition [9]: 70% | inhibition [10]: 64% | inhibition [11]: 57% | inhibition [12]: 55% | inhibition [13]: 54% | inhibition [14]: 54% | inhibition [15]: 38% | inhibition [16]: 38% | inhibition [17]: 37% | inhibition [18]: 33% | inhibition [19]: 31% | inhibition [20]: 25% | inhibition [21]: 23% | inhibition [22]: 20% | inhibition [23]: 2% | inhibition [24]: 14% | inhibition [25]: 10% | inhibition [26]: 4% | Activity [27]: inactive | Activity [28]: inactive

Reference: ChEMBL document CHEMBL4840352 (J Med Chem, 2021)
